Data: BindingDB's records for doi:10.1021/jm00008a010 (1995)

Assay: In vitro binding affinity towards 5-hydroxytryptamine 1D receptor beta by using [3H]5-HT as radioligand

**Q.** For `CCCNC1CCc2cccc(OS(=O)(=O)C(F)(F)F)c2C1` (stereo unspecified) [Trifluoro-methanesulfonic acid 7-propylamino-5,6,7,8-tetrahydro-naphthalen-1-yl ester], which Ki is on record?
**A.** 169 nM
